The subject of one experiment is MDCK cells. As to the kind of experiment: Cytotoxicity, cell counting kit-8 assay, MDCK normal cell line. The note with it: Canis lupus familiaris, non-malignant cell line, 24 h treatment, mean n = 3. The experiment is classed as cell-based. The method, then:
(§1) Three human cancer cell lines (A549, HepG2 and PC3) and normal cell line (MDCK) were obtained from the ATCC (Manassas, VA, USA) and grown on Eagle’s minimum essential medium (EMEM, GIBCO, Waltham, MA, USA) supplemented with F12 medium containing 10% FBS, 100 IU/mL penicillin and 100 μg/mL streptomycin [17].
(§2) Viability of the human cancer cell lines and normal cell line treated with different concentrations of A. cinnamomea extracts, subfractions, and isolates was evaluated using the cell counting kit-8 assay. Briefly, a total of 5 × 10^3 cells/well (A549, HepG2, PC3, or MDCK cells) were seeded into 96-well plates for 12 h, and the cells were treated with various concentrations of the isolated compounds (0.01–100 μM, double dilution method) for 24 h. The original medium was removed, 10% of the cell counting kit-8 in PBS was added to each well, and the plates were incubated for 2 h. The absorbance was measured at 540 nm using an enzyme-linked immunosorbent assay (ELISA) plate reader.
(§3) All experiments were carried out in triplicate, and each experiment was repeated three times. Data analysis was carried out using SPSS statistical package version 18.0 (SPSS, Inc., Armonk, NY, USA). The IC50 values (the concentration of drug necessary to induce 50% inhibition) were measured for all of the tested drugs using the Probit test in the SPSS software. The cell cycle distribution values of mean and standard deviation (mean ± SD) and 95% confidence intervals (CI) of means to verify the statistical significance of all parameters were calculated. The p-values of < 0.05 were adopted as statistically significant. All data are presented in this report as means ± SD of three replicates from three separate experiments.

Another experiment relates to A549 cells. As to the kind of experiment: Cytotoxicity, cell counting kit-8 assay, A549. The note with it: Homo sapiens, mean n = 3. The format is cell-based. The method, then: as §1, §2, §3
Experiment [1] concerns HepG2 cells. The experiment can be described thus: Cytotoxicity, cell counting kit-8 assay, HepG2. The experiment is classed as cell-based. The note with it: Homo sapiens, 24 h treatment, mean n = 3. As to the method:
as §1, §2, §3

A further experiment relates to PC3 cells. The experiment can be described thus: Cytotoxicity, cell counting kit-8 assay, PC3. The format is cell-based. To be noted: Homo sapiens, PC-3, mean n = 3. As to the method:
as §1, §2, §3

In experiment [2] the test system is HepG2 cells. The experiment can be described thus: Cell cycle distribution analysis by flow cytometry (PI staining). The format is cell-based, human. The note with it: for G1 (%) / G2-M (%) / S (%) / sub G1 (%): 24 h, HepG2, mean ± SD. As to the method: Stock solutions of 4-acetylantrocamol LT3 (20 mM) were prepared by dissolving them in DMSO, and appropriate working dilutions were prepared with the cell culture medium prior to the experiments. For cell cycle distribution analysis, HepG2 cells were treated with DMSO (control) and 4-acetylantrocamol LT3 for 24 h. The cells were then fixed in ice-cold 70% methanol for overnight. After an additional wash with PBS, the cell pellets were stained with 1 mL of propidium iodide (PI) staining solution containing 200 μg of PI in 1 mL of PBS containing 2 mg of DNase free RNase for 30 min. Acquisition and analysis were performed by flow cytometry (FACSCalibur flow cytometer, Becton, Dickinson and Co., Franklin Lakes, NJ, USA) with excitation at 488 nm. Data on each sample represent the percentage of cells in the sub-G1, G1, S, G2/M phases of the cell cycle, respectively.
as §3

Experiment [3] deals with A549, HepG2, and PC3 cell lines. As to the kind of experiment: Cytotoxicity against three human cancer cell lines (summary statements). The experiment is classed as cell-based. To be noted: in words. The method, then: as §1, §2, §3

As for `COC1=CC(=O)C(CC=C(C)CCC=C(C)CCC=C(C)C)=C(C)C1=O` [Compound 1, 5-methoxy-3-methyl-2-(3,7,11-trimethyldodeca-2,6,10-trienyl)cyclohexa-2,5-diene-1,4-dione], the IC50 in the experiment on MDCK cells is over 100 µM; in the experiment on A549 cells (A549, 24 h, 24 h treatment) it was 0.382 µM; in the experiment with HepG2 cells [1], over 100 µM; in the experiment on PC3 cells (24 h treatment) it was 0.014 µM.

As for `COC1=C(OC)[C@H](OC(C)=O)[C@H](C/C=C(\C)CC/C=C(\C)C/C=C/C(C)(C)O)[C@@H](C)C1=O` [Compound 2, 4-acetylantrocamol LT3], the IC50 is over 100 µM with MDCK cells; 0.027 µM in the experiment on A549 cells (A549, 24 h, 24 h treatment); 0.128 µM in the experiment on HepG2 cells [1]; 4.29 µM in the experiment with PC3 cells (24 h treatment). Further, the “G1 (%)” value in the experiment on HepG2 cells [2] (1 μM) is on record as 37.4 ± 4.2%; with HepG2 cells [2] (10 μM), 32.9 ± 2.4%. Moreover, the “G2-M (%)” value with HepG2 cells [2] (1 μM) turned out to be 33.6 ± 4.7%; with HepG2 cells [2] (10 μM), 33.6 ± 5.6%. Moreover, the figures for the “S (%)” value with HepG2 cells [2] (1 μM) and with HepG2 cells [2] (10 μM) were 15.4 ± 1.6% and 19.3 ± 4.9%, respectively. Moreover, the “sub G1 (%)” value in the experiment with HepG2 cells [2] (1 μM) is on record as 6.0 ± 0.7%; in the experiment with HepG2 cells [2] (10 μM) it was 9.2 ± 2.1%. Further, the “sub-G1 phase accumulation compared with control cells” value with HepG2 cells [2] (HepG2, 24 h, dose dependent) is given as 4–7 fold.

On to `COC1=C(OC)C(=O)C(C/C=C(\C)CC/C=C(\C)CCC=C(C)C)=C(C)C1=O` [Compound 3, quinone Q3], for which the IC50 with MDCK cells was over 100 µM; with A549 cells (A549, 24 h, 24 h treatment) it was 4.16 µM; with HepG2 cells [1], over 100 µM; in the experiment with PC3 cells (24 h treatment), 0.06 µM.

Regarding `COC1=C(OC)[C@H](O)[C@H](C/C=C(\C)CC/C=C(\C)C/C=C/C(C)(C)O)[C@@H](C)C1=O` [Compound 4, antrocamol LT3], the values for the half-maximal inhibitory concentration (IC50) in the experiment with MDCK cells, with HepG2 cells [1] and with PC3 cells (24 h treatment) were over 100 µM, 0.106 µM and 0.001 µM, respectively.

For `COC1=C(OC)[C@H](O)[C@H](C/C=C(\C)CC/C=C(\C)CCC=C(C)C)[C@@H](C)C1=O` [Compound 5, antroquinonol], the IC50 was found to be 10.5 µM with MDCK cells; 0.421 µM in the experiment with A549 cells (A549, 24 h, 24 h treatment); 0.044 µM in the experiment on HepG2 cells [1]; 0.073 µM with PC3 cells (24 h treatment).

Regarding `COC1=C(OC)[C@H](OC(C)=O)[C@H](C/C=C(\C)CC/C=C(\C)CCC=C(C)C)[C@@H](C)C1=O` [Compound 6, 4-acetylantroquinonol], the IC50 amounted to 41.6 µM in the experiment on MDCK cells; 0.611 µM with A549 cells (A549, 24 h, 24 h treatment); 0.075 µM with HepG2 cells [1]; 2.31 µM in the experiment on PC3 cells (24 h treatment).

With `COC1=C(OC)[C@H](O)[C@H](C/C=C(\C)CC/C=C(\C)C[C@H]2C[C@@H](C)C(=O)O2)[C@@H](C)C1=O` [Compound 7, antroquinonol B], the IC50 in the experiment with MDCK cells is over 100 µM; in the experiment on A549 cells (A549, 24 h, 24 h treatment), 6.03 µM; in the experiment on HepG2 cells [1], 21.4 µM; in the experiment with PC3 cells (24 h treatment) it was 1.03 µM.

As for `COC1=C(OC)[C@H](OC(C)=O)[C@H](C/C=C(\C)CC/C=C(\C)C[C@H]2C[C@@H](C)C(=O)O2)[C@@H](C)C1=O` [Compound 8, 4-acetylantroquinonol B], the IC50 with MDCK cells is over 100 µM; in the experiment with A549 cells (A549, 24 h, 24 h treatment), 35.9 µM; with HepG2 cells [1] it was over 100 µM; with PC3 cells (24 h treatment), 20.3 µM.

On to `COc1cc(C)c(OC)c2c1OCO2` [Compound 9, 4,7-dimethoxy-5-methyl-1,3-benzodioxole], for which the IC50 was over 100 µM in the experiment with MDCK cells; over 100 µM with A549 cells (A549, 24 h, 24 h treatment); over 100 µM in the experiment on HepG2 cells [1]; 13.3 µM in the experiment with PC3 cells (24 h treatment). Moreover, in experiment [3], the “activity against the cancer cell lines” value is “poor activity”.

On to `COc1cc(C)c(O)c(OC)c1O` [Compound 10, 2,4-dimethoxy-6-methyl-benzene-1,3-diol], for which the IC50 was over 100 µM in the experiment with MDCK cells; over 100 µM in the experiment on A549 cells (A549, 24 h, 24 h treatment); over 100 µM in the experiment on HepG2 cells [1]; over 100 µM with PC3 cells (24 h treatment). Further, the “activity against the cancer cell lines” value in experiment [3] is given as “poor activity”.

On to `CC(C)=CCOc1ccc(C2=C(CC(C)C)C(=O)OC2=O)cc1` [Compound 11, antrodin A], for which the half-inhibitory concentration (IC50) is over 100 µM in the experiment on MDCK cells; over 100 µM with A549 cells (A549, 24 h, 24 h treatment); 90.4 µM in the experiment with HepG2 cells [1]; over 100 µM in the experiment on PC3 cells (24 h treatment). Also, the “activity against the cancer cell lines” value in experiment [3] is recorded as “poor activity”.

On to `CC(=O)O[C@H]1C(=O)[C@@]2(C)[C@H]([C@H](OC(=O)c3ccccc3)[C@]3(O)C[C@H](OC(=O)[C@H](O)[C@@H](NC(=O)c4ccccc4)c4ccccc4)C(C)=C1C3(C)C)[C@]1(OC(C)=O)CO[C@@H]1C[C@@H]2O` [Taxol, reference compound], for which the IC50 with A549 cells (A549, positive control, unit given in row label) was found to be 0.000354 µM; in the experiment on PC3 cells (positive control, unit given in row label) it was 0.000461 µM.

As to `COc1cc([C@@H]2c3cc4c(cc3[C@@H](O[C@@H]3O[C@@H]5CO[C@@H](C)O[C@H]5[C@H](O)[C@H]3O)[C@H]3COC(=O)[C@H]23)OCO4)cc(OC)c1O` [Vepesid, reference compound], the half-inhibitory concentration (IC50) in the experiment on HepG2 cells [1] is 4.05 µM.

Source of the values: PMC6154633, “In Vitro Anticancer Activity and Structural Characterization of Ubiquinones from Antrodia cinnamomea Mycelium” (Molecules : A Journal of Synthetic Chemistry and Natural …, 2017).
